Results on 3 molecules are retold here after article PMC10149257, “Substrate recognition and proton coupling by a bacterial member of solute carrier family 17” (The Journal of Biological Chemistry, 2023).

In data set [1] the target is T1, Sialin (Rattus norvegicus, UniProt Q5Q0U0).
T1 construct: gene Slc17a5
T1 sequence (Q5Q0U0 1-495): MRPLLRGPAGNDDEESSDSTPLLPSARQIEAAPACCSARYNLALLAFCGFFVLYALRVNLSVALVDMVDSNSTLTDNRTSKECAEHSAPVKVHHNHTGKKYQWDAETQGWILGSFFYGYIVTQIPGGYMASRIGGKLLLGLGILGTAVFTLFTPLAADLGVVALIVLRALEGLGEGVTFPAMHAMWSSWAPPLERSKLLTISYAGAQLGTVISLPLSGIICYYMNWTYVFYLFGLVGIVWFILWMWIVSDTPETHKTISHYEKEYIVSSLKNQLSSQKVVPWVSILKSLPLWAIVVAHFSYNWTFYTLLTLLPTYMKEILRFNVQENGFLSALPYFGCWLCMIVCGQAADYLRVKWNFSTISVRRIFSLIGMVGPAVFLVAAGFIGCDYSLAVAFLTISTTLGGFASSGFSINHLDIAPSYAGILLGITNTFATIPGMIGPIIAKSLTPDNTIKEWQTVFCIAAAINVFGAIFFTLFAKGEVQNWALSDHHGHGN
The data set is described as follows: inhibition of 3H-glucuronic acid uptake by unlabelled compound in transfected HEK293T cells. It is filed as cell-based. Conditions: room temperature, 4 min, Ringer's solution; self-competition with labelled compound.

Data set [2] has as its target T2, Sialin (Rattus norvegicus, UniProt Q5Q0U0, Y54F, form not given).
T2 construct: gene Slc17a5
T2 sequence (Q5Q0U0 1-495 Y54F): T1 sequence (Q5Q0U0 1-495) with Y54F
Described as above. The class given is cell-based. The note with it: room temperature, 4 min, Ringer's solution; self-competition with labelled compound.

Data set [3] deals with T3, O=C(O)[C@H](O)[C@@H](O)[C@@H](O)[C@H](O)CO.
T3 construct: full length, C-terminal modified decahistidine tag, pBAD; expressed in dgoT-deleted E. coli (Keio dgoT727(del)::kan)
The data set is described as follows: cells, lysate or membranes. The class given is cell-based, Escherichia coli. Conditions: 150 mM KCl, pH 6, 30 °C, 30 s, H+ cotransport, labelled compound.

Substrate in data set [4]: O=C(O)[C@H](O)[C@@H](O)[C@@H](O)[C@H](O)CO
Put plainly: cells, lysate or membranes. The class given is cell-based, Escherichia coli. Conditions: 150 mM KCl, pH 6, 30 °C, 20 s, H+ cotransport, labelled compound.

Residue numbers refer to the chain shown, from its start.

As usually defined, the IC50 is the concentration that gives 50% inhibition. The low end stands for greater potency, the high end for weaker potency. With `O=C(O)[C@H]1OC(O)[C@H](O)[C@@H](O)[C@@H]1O` (stereo partly shown) [glucuronic acid], the IC50 on Sialin [1] is ~2000 µM; at Sialin [2] it was ~3000 µM.

A word on the Km: it is the substrate concentration at which the rate is half of its maximum. Turning to DgoT (Escherichia coli; Y44F), in data set [3], the Michaelis constant (Km) came to 22.8 ± 7.7 µM.

B1: DgoT (Escherichia coli) (protein)
chain: MVSGFAMPKIWRKLAMDIPVNAAKPGRRRYLTLVMIFITVVICYVDRANLAVASAHIQEEFGITKAEMGYVFSAFAWLYTLCQIPGGWFLDRVGSRVTYFIAIFGWSVATLFQGFATGLMSLIGLRAITGIFEAPAFPTNNRMVTSWFPEHERASAVGFYTSGQFVGLAFLTPLLIWIQEMLSWHWVFIVTGGIGIIWSLIWFKVYQPPRLTKGISKAELDYIRDGGGLVDGDAPVKKEARQPLTAKDWKLVFHRKLIGVYLGQFAVASTLWFFLTWFPNYLTQEKGITALKAGFMTTVPFLAAFVGVLLSGWVADLLVRKGFSLGFARKTPIICGLLISTCIMGANYTNDPMMIMCLMALAFFGNGFASITWSLVSSLAPMRLIGLTGGVFNFAGGLGGITVPLVVGYLAQGYGFAPALVYISAVALIGALSYILLVGDVKRVG
notes: full length, C-terminal modified decahistidine tag, pBAD; expressed in dgoT-deleted E. coli (Keio dgoT727(del)::kan)
In the case of B1, in data set [4], the Km was 1.97 ± 1.1 µM.
